Marks after values point to notes of the source that are not given here.
How the values were obtained:
[1] = test system: MDA-MB-231 cells isolated from tumor-bearing mice; experiment: Chemosensitization of cultured MDA-MB-231 cells isolated from xenografts; assay type: cell-based, human; settings: 72 h-cultured, PL 0.1 μM, Chemo 0.25 μM PAC.PBP, Pter = in vivo pretreatment
Procedure: FIGS. 18-25. Effect of piperlongumine and I-BET762, as GSH depleting and chemosensitizing agents, in in vitro growing human melanoma, pancreatic, breast, lung, liver, prostate, ovarian, and colorectal cancer cells. Cancer cells, isolated from Pter-treated tumor-bearing mice, were cultured as indicated under Methods. Chemotherapy (0.25 μM PAC.PBP in A2058 melanoma and MDA-MB-231 breast carcinoma cells; 0.125 μM PAC.PBP and 25 μM GTB in AsPC-1 pancreatic cancer cells; 1 μM VRB and 15 μM cisPt in A459 lung carcinoma cells; 0.15 μM DXR in HepG2 hepatocellular carcinoma cells; 15 nM DCT in PC-3 prostate carcinoma cells; 0.15 μM PAC.PBP and 25 μM CarboPt in SK-OV-3 ovarian carcinoma cells; 3 μM 5-FU, 1 μM FA and 0.6 μM IRI in HT-29 colorectal carcinoma cells) was added to the cultured flasks 24 h after seeding. […]
Human A2058, MeWo and MelJuso melanoma cells, and mouse AtT-20 pituitary corticotroph tumor cells were from the American Type Culture Collection (ATCC). […] Cell numbers were determined using a Coulter Counter (Coulter Electronic Inc., Miami, Fla.). […] Cellular viability was assessed as previously reported (Mena, S. et al. Clin Cancer Res 13, 2658-2666 (2007)), by measuring trypan blue exclusion and leakage of lactate dehydrogenase activity. […]

human melanoma cells = experiment: Effect of pterostilbene on melanoma cell growth and viability in vitro; assay type: cell-based
[2] = test system: glucocorticoid receptors (GR); experiment: GR content of murine B16-F1 cells by [3H]-labeled ligand whole-cell binding assay; settings: B16-F1-RFP tumors; day 15
Procedure: Measurement of the GR Content of Cancer Cell Lines by [^3H]-Labeled Ligand Binding Assay. The GR content was measured by a whole-cell binding assay as previously described with some modifications (Harmon, J. M. & Thompson, E. B. […] Briefly 72 h-cultured melanoma cells were harvested, as indicated above, and resuspended in culture medium to a density of 5×10^6 cells/mL. […] Cells were then washed thrice in 5.0 mL of Hank's balanced salt solution and finally suspended in 1.5 mL of the same solution. […] The presence of at least 200-fold excess of unlabeled dexamethasone effectively competed out all of the binding of [^3H]-dexamethasone to specific GR. The binding of [^3H]-dexamethasone to specific GR was represented as the difference in disintegrations per minute per cell between those samples incubated with [^3H]-dexamethasone alone and those with at least 200-fold excess of unlabeled dexamethasone. Using the specific activity of [^3H]-dexamethasone, the number of receptors per cell was calculated, assuming that each receptor binds to one dexamethasone molecule.

HT-29 human colon cancer = settings: 20 μM Pter, 24 h, in vitro; cited from earlier work
B16-F1 melanoma = experiment: In vivo growth of murine B16-F1 melanoma; settings: B16-F1-RFP; 15 days after inoculation; Pter 30 mg/kg i.v. every 24 h, ± CRC
Procedure: FIG. 14. In vivo effect of Pter on tumor growth (A) and on corticosterone (B) and ACTH (C) levels in plasma of murine B16-F1 melanoma-bearing mice. Pter (30 mg/kg) was administered i.v. every 24 h for a period of 15 days, starting 3 days after tumor inoculation.

## COc1cc(/C=C/c2ccc(O)cc2)cc(OC)c1 [Pter, trans-3,5-dimethoxy-4′-hydroxystilbene]
[1]
  Viable cells: 966 ± 177 ×10^6
Human melanoma cells; human melanoma cells, 60 min incubation
  pterostilbene levels in culture medium during incubation: remained unchanged
Human melanoma cells; pterostilbene 15 μM, 60 min each 24 h
  melanoma cell proliferation and viability in vitro: nor tumor cell proliferation neither viability were significantly affected
[2]
  GR number (binding sites/cell): 112 ± 16 10^3 GR/cell
HT-29 human colon cancer
  decrease in tumor cell viability: ~10%
B16-F1 melanoma
  Tumor vol.: 790 ± 156* mm^3

From US11179348B2, “Combination comprising pterostilbene for the treatment of cancer” (FUNDACIÓN UNIVERSIDAD CATÓLICA DE VALENCIA SAN VICENTE …, priority 2015, dated 2021)
